Results from BindingDB's records for patent US12319655 (Deciphera Pharmaceuticals, 2025).

Columns and labels:
[1] = molecular target: T1, Serine/threonine-protein kinase B-raf [416-766,V600E] (Homo sapiens, UniProt P15056, V600E); assay: Biochemical Assay for B-Raf (V600E) (1)
T1 construct: 416-766
Protocol: Activity of B-Raf (V600E) (SEQ. ID NO: 4) kinase was determined spectroscopically using a coupled pyruvate kinase/lactate dehydrogenase assay that continuously monitors the ATP hydrolysis-dependent oxidation of NADH (e.g., Schindler et al., Science, 2000, 289, 1938-1942). Assays were conducted in 384-well plates (100 μL final volume) using 0.03 nM B-Raf (SignalChem), 1.5 units pyruvate kinase, 2.1 units lactate dehydrogenase, 1 mM phosphoenol pyruvate, 0.28 mM NADH, 30.1 nM MEK (SignalChem), and 1 mM ATP in assay buffer (100 mM Tris, Ph 7.5, 15 mM MgCl2, 0.5 mM DTT, 0.1% octyl-glucoside, 0.002% (w/v) BSA, and 0.002% Triton X-100). Inhibition of B-Raf (V600E) was measured by adding serial diluted test compound (final assay concentration of 1% DMSO). A decrease in absorption at 340 nm was monitored continuously for 6 h at 30° C. on a multi-mode microplate reader (BioTek). The reaction rate was calculated using the 3 to 4 h time frame. The reaction rate at each concentration of compound was converted to percent inhibition using controls (i.e., reaction with no test compound and reaction with a known inhibitor) and IC50 values were calculated by fitting a four-parameter sigmoidal curve to the data using Prism (GraphPad software).

[2] = molecular target: T2, Serine/threonine-protein kinase B-raf [416-766] (UniProt P15056); assay: Biochemical Assay for B-Raf (1)
T2 construct: 416-766
Protocol: (§1) Activity of B-Raf kinase (SEQ. ID NO: 2) was determined spectroscopically using a coupled pyruvate kinase/lactate dehydrogenase assay that continuously monitors the ATP hydrolysis-dependent oxidation of NADH (e.g., Schindler et al., Science, 2000, 289, 1938-1942). Assays were conducted in 384-well plates (100 μL final volume) using 0.13 nM B-Raf (Sigma), 1.5 units pyruvate kinase, 2.1 units lactate dehydrogenase, 1 mM phosphoenol pyruvate, 0.28 mM NADH, 30.1 nM MEK (SignalChem), and 1 mM ATP in assay buffer (100 mM Tris, Ph 7.5, 15 mM MgCl2, 0.5 mM DTT, 0.1% octyl-glucoside, 0.002% (w/v) BSA, and 0.002% Triton X-100). Inhibition of B-Raf was measured by adding serial diluted test compound (final assay concentration of 1% DMSO). A decrease in absorption at 340 nm was monitored continuously for 6 h at 30° C. on a multi-mode microplate reader (BioTek). The reaction rate was calculated using the 4 to 5 h time frame. The reaction rate at each concentration of compound was converted to percent inhibition using controls (i.e., reaction with no test compound and reaction with a known inhibitor) and IC50 values were calculated by fitting a four-parameter sigmoidal curve to the data using Prism (GraphPad software).

[3] = molecular target: T3, RAF proto-oncogene serine/threonine-protein kinase [306-648,Y340D,Y341D] (Homo sapiens, UniProt P04049, Y340D/Y341D); assay: Biochemical Assay for C-Raf (1)
T3 construct: 306-648
Protocol: as §1, with “of C-Raf” for “of B-Raf”, “NO: 3)” for “NO: 2)”, “using 0.43” for “using 0.13”, “nM C-Raf” for “nM B-Raf”

T3 sequence (P04049 306-648 Y340D/Y341D): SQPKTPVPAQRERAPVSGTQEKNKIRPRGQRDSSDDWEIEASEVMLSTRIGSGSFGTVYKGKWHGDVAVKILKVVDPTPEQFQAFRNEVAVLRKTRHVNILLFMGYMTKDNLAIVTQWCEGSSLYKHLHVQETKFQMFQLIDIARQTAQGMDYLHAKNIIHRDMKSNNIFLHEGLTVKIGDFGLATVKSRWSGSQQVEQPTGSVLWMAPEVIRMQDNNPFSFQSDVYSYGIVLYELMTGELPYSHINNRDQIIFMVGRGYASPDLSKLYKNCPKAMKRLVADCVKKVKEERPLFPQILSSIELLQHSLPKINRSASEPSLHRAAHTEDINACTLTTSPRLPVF
T1 sequence (P15056 416-766 V600E): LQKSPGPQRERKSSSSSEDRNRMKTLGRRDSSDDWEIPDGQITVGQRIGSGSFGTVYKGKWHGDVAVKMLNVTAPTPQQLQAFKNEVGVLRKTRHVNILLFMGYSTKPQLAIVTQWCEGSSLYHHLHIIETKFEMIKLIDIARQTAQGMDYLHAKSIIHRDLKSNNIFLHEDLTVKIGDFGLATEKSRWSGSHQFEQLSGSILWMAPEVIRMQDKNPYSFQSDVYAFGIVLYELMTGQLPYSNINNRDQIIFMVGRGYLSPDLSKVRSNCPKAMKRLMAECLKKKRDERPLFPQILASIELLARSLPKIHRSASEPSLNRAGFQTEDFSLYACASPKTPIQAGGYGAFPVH
T2 sequence (P15056 416-766): as the sequence (P15056 416-766 V600E) above, with E185V counted along it

IC50 [1]	IC50 [2]	IC50 [3]	Structure (SMILES)
< 100 nM	–	–	Cc1ccc(NC(=O)c2ccnc(C(F)(F)F)c2)cc1-c1cc(-c2ccnc(N)c2)n(C)c(=O)c1 [US12319655, Example 53]
–	< 100 nM	< 100 nM	Cc1ccc(NC(=O)c2ccnc(C(C)(C)C#N)c2)cc1-c1ccnc(-c2ccncc2)c1 [US12319655, Example 55]
< 100 nM	–	< 100 nM	Cc1ccc(NC(=O)c2ccnc(C(F)(F)F)c2)cc1-c1cccc(-c2ccnc(NC(=O)C3CC3)c2)c1 [US12319655, Example 58]
–	< 100 nM	< 100 nM	Cc1ccc(NC(=O)c2cnnc(C3CC3)c2)cc1-c1nccc(-c2ccnc(NC(=O)C3CC3)c2)n1 [US12319655, Example 272]
